From patent US20260007609A1, “METHOD FOR PRODUCING EXTRACELLULAR VESICLES CONTAINING BIOACTIVE SUBSTANCE” (The University of Tokyo, priority 2022, published 2026)
“Also recorded” adds a separate entry of the source.

Columns and labels:
Assay type in all cases: cell-based
[1] = test system: NIH3T3 cells; assay: Immunostaining of ceramide
Protocol: (§1) As for light microscopic observation, cells were plated on a 35-mm glass-bottomed dish (Matsunami, Japan, #D11130H) that had been pre-coated with poly-L-lysine (1:1,000, Sigma, #P4707) for 1 hour. Immunofluorescence labelling was performed using the antibodies described above. Briefly, cells were incubated with the primary antibody overnight at 4° C., and with the secondary antibody for 1 hour, followed by washing with PBS three times for 5 minutes for each washing. Thereafter, as mentioned above, using a spinning disc confocal microscope (Yokogawa/ZEISS) or an LSM780 confocal microscope equipped with Airyscan, the cells were observed. Three dimensional reconstruction of the cells was performed using Imaris 8 software (Bitplane).
In order to investigate whether nSMase2 activity is influenced by the CID1067700 treatment, NIH3T3 cells were treated with CID1067700 and/or GW4869, and immunostaining of ceramide was then performed (FIG. 6).

[2] = test system: human mesenchymal stem cells; assay: Nanoparticle tracking analysis (NTA) of culture supernatant of human mesenchymal stem cells
Protocol: (§2) Human mesenchymal stem cells were plated on three 10-cm cell culture dishes at a density of 5,000 to 6,000 cells/cm^2. Six days after initiation of the culture, per dish, the medium was replaced with the EV Production Basal Medium (FUJIFILM-Wako, #053-09451 and #298-84001), to which 10 mL of supplements had been added (wherein a new medium to be replaced comprised an additive compound, as appropriate). After 24 hours of culture under conditions of 5% CO2 and 37° C., the medium was recovered, and was then centrifuged at 2,000×g for 30 minutes at 4° C. to remove the cell debris. Using a Millipore Amicon Ultra 30,000 MWCO filter (Pall, #MAP030C37), the resultant was centrifuged at 4,000×g for 60 minutes at 4° C., so that it was condensed to 1 ml. To the condensed culture supernatant, 500 μL of Total Exosome Isolation Reagent (Invitrogen, #4478359) was added, and the obtained mixture was then incubated overnight, while mixing it by inverting. The solution that had been mixed overnight was centrifuged at 10,000×g for at least 1 hour, and the extracellular vesicles were harvested as a precipitate, which was then resuspended in 30 μL of PBS. The obtained extracellular vesicles were preserved at 4° C. and were then used in experiments within 1 week.
The above-described culture supernatant was diluted with PBS, and was then analyzed using Zetaview Nanoparticle Tracking Analysis Instrument (Particle Metrix, Germany). The collected data were analyzed and diagrammatized using Prism software (Graphpad, ver. 7 and 9.3.1).
First, human mesenchymal stem cells were cultured for 24 hours in a basic medium for EV production (FUJIFILM-Wako) supplemented with supplements in the presence or absence of CID1067700, and NTA was performed using the culture supernatant after removing impurities by centrifugation (FIG. 3). Using ZetaView system capable of counting extracellular vesicles with a large particle diameter such as approximately 1 μm, the measurement was performed at the “highest” mode. […]

[3] = test system: ShhN-EGFP transduced NIH3T3 fibroblasts; assay: In vitro extracellular vesicle release imaging (Shh-EV tracking)
Protocol: (§3) CID1067700 (#SML0545-5MG) was purchased from Sigma-Aldrich, was solubilized at 40 mM in DMSO, and was added to cells to a final concentration of 40 μM, followed by performing culture for 24 hours. GW4869 (#13127) was purchased from Cayman Chemical, was solubilized at 5 mM in DMSO, and was added to cells to a final concentration of 1.25 μM, followed by performing culture for 24 hours. TAS116 (#HY-15785) was purchased from MedChemExpress, was solubilized at 1 mM in DMSO and was added to cells to a final concentration of 0.5 μM, followed by performing culture for 48 hours.
In order to monitor the Brownian motion of Shh extracellular particles, NIH3T3 cells were plated at 1×10^4 cells/well onto an 8-well LabTek II Chamber #1.5 German Coverglass System pre-coated with poly-L-lysine. On the 3rd day of the culture, an adenoviral Shh-N-EGFP expression vector was introduced into the NIH3T3 cells. […] Twenty-four hours after the medium replacement, time-lapse imaging was performed using a spinning disc microscope (Yokogawa/ZEISS) according to the previous report (Tanaka et al., Neuron 90, 1215-1229, 2016) under conditions of 5% CO2 and 37° C. at intervals of 5 seconds. Shh extracellular vesicles with Brownian motion were identified using Imaris 8 software (Bitplane) and were then quantified.
Extracellular vesicles with a large particle diameter, which contain Shh, were visualized by live cell imaging in ShhN-EGFP transduced NIH3T3 fibroblasts treated with CID1067700 (FIG. 5).
These particles were automatically tracked and were identified as extracellular vesicles released from cells under drug (CID1067700, GW4869, or TSA116) addition conditions (FIGS. 5B to 5I). […] However, this increase in the released amount of Shh-EVs due to the CID1067700 treatment disappeared, when the cells were treated with […] TSA116 (Hsp90 inhibitor) for 48 hours or with 1.25 μM GW4869 (nSMase2 inhibitor) for 24 hours (FIG. 5J).

[4] = test system: NIH3T3 cells; assay: Fluorescence microscopy of extracellular structures containing Shh and Hsp90; details: 40 μM, 24 hours, vs DMSO
Protocol: as §1
The morphological characteristics of Shh-EVs mediated by Hsp90 secreted from CID1067700-treated cells were observed. Both Shh-tagRFP and Hsp90-EGFP were transduced into NIH3T3 cells, and the effects obtained by treating the cells with CID1067700 for 24 hours were compared. The cells were fixed the cells and were then photographed by z-stacks, and a three-dimensional model was then constructed. […] Since these structures were observed after the medium was removed and the cells were fixed, they are thought to interact with the cells as intermediate structures in the process of extracellular vesicle release. […]

[5] = test system: human mesenchymal stem cells; assay: Transmission electron microscopy of hMSC-EV pellets; details: TEM histogram of particle sizes larger than 100 nm, vs DMSO
Protocol: Observation by transmission electron microscopy (TEM) was performed according to previously reported standard methods (Nonaka et al., Cell 95, 829-837, 1998; Takei et al., The Journal of cell biology 131, 1789-1800, 1995). A precipitate of extracellular vesicles was fixed in Half Kalnovsky fixative at 37° C. for 10 min and then at 4° C. overnight, followed by post-fixation with 1% OsO4 (in 0.1 M cacodylate buffer (pH 7.4)) on ice for 1.5 hours. Thereafter, the sample was subjected to electron staining with 1% uranyl acetate for 1 hour, and was then dehydrated using a graded ethanol series. Finally, the dehydrated extracellular vesicle sample was embedded in Quetol-812 (Nisshin EM), was then cut into ultrathin sections, was then electron-stained with uranyl acetate and lead citrate, and was then observed using a JEM2000 microscope at 100 keV, or using a JEM-1400Flash microscope at 80 keV. Next, the extracellular vesicle pellets were observed using TEM (FIG. 4). In addition to conventionally known small (approximately 100 nm in diameter) exosome-like particles, particles with a low electron density (bright) and a diameter of larger than 800 nm were contained in the extracellular vesicle fraction derived from human mesenchymal stem cells treated with CID1067700, and the particles tended to be surrounded with a lipid double layer (FIGS. 4A and 4B).

[6] = test system: human mesenchymal stem cells; assay: Immunoblotting of extracellular vesicle fraction from culture supernatant of treated human mesenchymal stem cells; details: 40 μM, 24 hours, compared to DMSO
Protocol: as §3, §2
Immunoblotting was performed according to the previous report (Yin et al., Neuron 70, 310-325, 2011). […] The bands were detected using an ImageQuant LAS 4000 mini system (GE Healthcare Life Sciences, USA) and were then quantified using ImageJ software. […]

[7] = culture supernatant, 24 hours treatment, n=4

CC1(C)Cc2c(sc(NC(=S)NC(=O)c3ccccc3)c2C(=O)O)CO1 [CID1067700, 2-(benzoylcarbamothioylamino)-5,5-dimethyl-4,7-dihydrothieno[2,3-c]pyran-3-carboxylic acid]
expression level of ceramide in the cytoplasm ([1]; 24 hours of treatment (40 μM), compared to DMSO alone): significantly increased
extracellular vesicles with a diameter of 100 to 800 nm per ml [2, 7]: 3.2±1.9×10^8 particles/ml
extracellular vesicles with a diameter of larger than 800 nm [2, 7]: 6.6±2.2×10^7 particles/ml
number of extracellular vesicles with a particle diameter of greater than 800 nm ([2]; result in words, vs DMSO alone): significantly increased
number of Shh-EVs ([3]; 24 hours of treatment, compared to control (DMSO treatment)): significantly increased
cells with extracellular structures containing Hsp90 and Shh [4]: significantly increased
number of large-size extracellular vesicles [5]: significantly increased
amount of Shh in the extracellular vesicles released from the cells [6]: significantly elevated
amount of the general exosome marker Hsp90 in extracellular vesicles [6]: largely unaltered
amount of the general exosome marker TSG101 in extracellular vesicles [6]: largely unaltered

O=C(/C=C/c1ccc(/C=C/C(=O)Nc2ccc(C3=NCCN3)cc2)cc1)Nc1ccc(C2=NCCN2)cc1 [GW4869]
increase in the expression level of ceramide caused by CID1067700 ([1]; simultaneous treatment with GW4869 (2.5 μM), 24 hours): significantly suppressed; also recorded: offset
increase in the released amount of Shh-EVs due to the CID1067700 treatment ([3]; co-treatment with 1.25 μM GW4869 for 24 hours): disappeared

CCc1cc(C(N)=O)ccc1-n1nc(C(C)C)c2c(-n3cnc(-c4cnn(C)c4)c3)ccnc21 [TSA116]
increase in the released amount of Shh-EVs due to the CID1067700 treatment ([3]; co-treatment with 5 μM TSA116 for 48 hours): disappeared
